# Laboratory results taken from the supplement of paper PMC10307832.
# Legend:
# Experiment in all cases: relative viability (nuclei count vs DMSO), 5 days (fraction); higher = more cells survive
# NCI-H3122 = test system: NCI-H3122
# Method in brief: (§1)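 Relative viability was taken as the ratio of nuclei in treated wells to nuclei in vehicle wells. Lung cancer cell lines in 1536-well plates received compounds by pin tool one day after seeding, either one drug alone or a fixed anchor-drug dose plus five library-drug doses (not always all listed) in √10 steps. Nuclei were counted on 4× images after 5 days of treatment, and values are medians of duplicate plates.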
# NCI-H2228 = test system: NCI-H2228
# Method in brief: as §1
# NCI-H2405 = test system: NCI-H2405
# Method in brief: as §1
# HCC-366 = test system: HCC-366
# Method in brief: as §1
# NCI-H2009 = test system: NCI-H2009
# Method in brief: as §1
# NCI-H596 = test system: NCI-H596
# Method in brief: as §1
# SW 1573 = test system: SW 1573
# Method in brief: as §1
# SK-MES-1 = test system: SK-MES-1
# Method in brief: as §1
# PC-14 = test system: PC-14
# Method in brief: as §1
# HOP-62 = test system: HOP-62
# Method in brief: as §1
# NCI-H2085 = test system: NCI-H2085
# Method in brief: as §1
# NCI-H1734 = test system: NCI-H1734
# Method in brief: as §1
# NCI-H1993 = test system: NCI-H1993
# Method in brief: as §1
# NCI-H2347 = test system: NCI-H2347
# Method in brief: as §1
# RERF-LC-KJ = test system: RERF-LC-KJ
# Method in brief: as §1
# HCC-78 = test system: HCC-78
# Method in brief: as §1
# NCI-H838 = test system: NCI-H838
# Method in brief: as §1
# CAL-12T = test system: CAL-12T
# Method in brief: as §1
# LC-2-ad = test system: LC-2-ad
# Method in brief: as §1
# NCI-H1355 = test system: NCI-H1355
# Method in brief: as §1
# EMC-BAC-2 = test system: EMC-BAC-2
# Method in brief: as §1
# LK-2 = test system: LK-2
# Method in brief: as §1
compound,measurement,setting,value
O=c1[nH]c2ccccc2n1C1CCN(CCCC(c2ccc(F)cc2)c2ccc(F)cc2)CC1 [Pimozide] + CS(=O)(=O)CCNCc1ccc(-c2ccc3ncnc(Nc4ccc(OCc5cccc(F)c5)c(Cl)c4)c3c2)o1 [Lapatinib] (partner 2 µM),relative viability,NCI-H3122; first compound 0.08 µM,1
same,relative viability,NCI-H3122; first compound 0.253 µM,1
same,relative viability,NCI-H3122; first compound 0.8 µM,0.813
same,relative viability,NCI-H3122; first compound 2.53 µM,1
same,relative viability,NCI-H3122; first compound 8 µM,1.01
same,relative viability,NCI-H2228; first compound 0.08 µM,1.18
same,relative viability,NCI-H2228; first compound 0.253 µM,1.2
same,relative viability,NCI-H2228; first compound 0.8 µM,0.924
same,relative viability,NCI-H2228; first compound 2.53 µM,0.924
same,relative viability,NCI-H2228; first compound 8 µM,0.669
same,relative viability,NCI-H2405; first compound 0.08 µM,1.02
same,relative viability,NCI-H2405; first compound 0.253 µM,0.833
same,relative viability,NCI-H2405; first compound 0.8 µM,0.984
same,relative viability,NCI-H2405; first compound 2.53 µM,1.04
same,relative viability,NCI-H2405; first compound 8 µM,0.79
same,relative viability,HCC-366; first compound 0.08 µM,0.971
same,relative viability,HCC-366; first compound 0.253 µM,1.02
same,relative viability,HCC-366; first compound 0.8 µM,0.988
same,relative viability,HCC-366; first compound 2.53 µM,1.01
same,relative viability,HCC-366; first compound 8 µM,1.06
same,relative viability,NCI-H2009; first compound 0.08 µM,0.955
same,relative viability,NCI-H2009; first compound 0.253 µM,0.977
same,relative viability,NCI-H2009; first compound 0.8 µM,0.861
same,relative viability,NCI-H2009; first compound 2.53 µM,0.715
same,relative viability,NCI-H2009; first compound 8 µM,0.763
same,relative viability,NCI-H596; first compound 0.08 µM,1
same,relative viability,NCI-H596; first compound 0.253 µM,1.15
same,relative viability,NCI-H596; first compound 0.8 µM,1.16
same,relative viability,NCI-H596; first compound 2.53 µM,1.01
same,relative viability,NCI-H596; first compound 8 µM,0.87
same,relative viability,SW 1573; first compound 0.08 µM,1.11
same,relative viability,SW 1573; first compound 0.253 µM,1.12
same,relative viability,SW 1573; first compound 0.8 µM,1.12
same,relative viability,SW 1573; first compound 2.53 µM,1.16
same,relative viability,SW 1573; first compound 8 µM,1.11
same,relative viability,SK-MES-1; first compound 0.08 µM,0.468
same,relative viability,SK-MES-1; first compound 0.253 µM,0.445
same,relative viability,SK-MES-1; first compound 0.8 µM,0.451
same,relative viability,SK-MES-1; first compound 2.53 µM,0.491
same,relative viability,SK-MES-1; first compound 8 µM,0.507
same,relative viability,PC-14; first compound 0.253 µM,0.38
same,relative viability,PC-14; first compound 0.8 µM,0.297
same,relative viability,PC-14; first compound 2.53 µM,0.334
same,relative viability,PC-14; first compound 8 µM,0.325
same,relative viability,HOP-62; first compound 0.08 µM,0.917
same,relative viability,HOP-62; first compound 0.253 µM,1.09
same,relative viability,HOP-62; first compound 2.53 µM,0.995
same,relative viability,HOP-62; first compound 8 µM,1.06
same,relative viability,NCI-H2085; first compound 0.08 µM,0.786
same,relative viability,NCI-H2085; first compound 0.253 µM,0.711
same,relative viability,NCI-H2085; first compound 0.8 µM,0.704
same,relative viability,NCI-H2085; first compound 2.53 µM,0.704
same,relative viability,NCI-H2085; first compound 8 µM,0.698
same,relative viability,NCI-H1734; first compound 0.08 µM,1.04
same,relative viability,NCI-H1734; first compound 0.253 µM,1.07
same,relative viability,NCI-H1734; first compound 0.8 µM,0.978
same,relative viability,NCI-H1734; first compound 2.53 µM,0.96
same,relative viability,NCI-H1734; first compound 8 µM,0.671
same,relative viability,NCI-H1993; first compound 0.08 µM,0.894
same,relative viability,NCI-H1993; first compound 0.253 µM,0.714
same,relative viability,NCI-H1993; first compound 0.8 µM,0.697
same,relative viability,NCI-H1993; first compound 2.53 µM,0.788
same,relative viability,NCI-H1993; first compound 8 µM,0.901
same,relative viability,NCI-H2347; first compound 0.08 µM,0.834
same,relative viability,NCI-H2347; first compound 0.253 µM,0.92
same,relative viability,NCI-H2347; first compound 0.8 µM,0.771
same,relative viability,NCI-H2347; first compound 2.53 µM,0.926
same,relative viability,NCI-H2347; first compound 8 µM,0.978
same,relative viability,RERF-LC-KJ; first compound 0.08 µM,0.885
same,relative viability,RERF-LC-KJ; first compound 0.253 µM,0.801
same,relative viability,RERF-LC-KJ; first compound 0.8 µM,0.776
same,relative viability,RERF-LC-KJ; first compound 2.53 µM,0.784
same,relative viability,RERF-LC-KJ; first compound 8 µM,0.742
same,relative viability,HCC-78; first compound 0.08 µM,0.484
same,relative viability,HCC-78; first compound 0.253 µM,0.831
same,relative viability,HCC-78; first compound 0.8 µM,0.54
same,relative viability,HCC-78; first compound 2.53 µM,0.608
same,relative viability,HCC-78; first compound 8 µM,0.889
same,relative viability,NCI-H838; first compound 0.08 µM,1.18
same,relative viability,NCI-H838; first compound 0.253 µM,1.07
same,relative viability,NCI-H838; first compound 0.8 µM,0.954
same,relative viability,NCI-H838; first compound 2.53 µM,0.822
same,relative viability,NCI-H838; first compound 8 µM,0.829
same,relative viability,CAL-12T; first compound 0.08 µM,0.57
same,relative viability,CAL-12T; first compound 0.253 µM,0.588
same,relative viability,CAL-12T; first compound 0.8 µM,0.551
same,relative viability,CAL-12T; first compound 2.53 µM,0.538
same,relative viability,CAL-12T; first compound 8 µM,0.625
same,relative viability,LC-2-ad; first compound 0.08 µM,0.943
same,relative viability,LC-2-ad; first compound 0.253 µM,0.918
same,relative viability,LC-2-ad; first compound 0.8 µM,0.918
same,relative viability,LC-2-ad; first compound 2.53 µM,0.949
same,relative viability,LC-2-ad; first compound 8 µM,0.6
same,relative viability,NCI-H1355; first compound 0.08 µM,1.02
same,relative viability,NCI-H1355; first compound 0.253 µM,1.09
same,relative viability,NCI-H1355; first compound 0.8 µM,0.933
same,relative viability,NCI-H1355; first compound 2.53 µM,0.939
same,relative viability,NCI-H1355; first compound 8 µM,0.982
same,relative viability,EMC-BAC-2; first compound 0.08 µM,0.865
same,relative viability,EMC-BAC-2; first compound 0.253 µM,0.832
same,relative viability,EMC-BAC-2; first compound 0.8 µM,0.843
same,relative viability,EMC-BAC-2; first compound 2.53 µM,0.885
same,relative viability,EMC-BAC-2; first compound 8 µM,0.868
same,relative viability,LK-2; first compound 0.08 µM,0.851
same,relative viability,LK-2; first compound 0.253 µM,0.842
same,relative viability,LK-2; first compound 0.8 µM,0.731
same,relative viability,LK-2; first compound 2.53 µM,0.78
same,relative viability,LK-2; first compound 8 µM,1.13
